As a reminder, the Ki is a measure of affinity in units of concentration, obtained from inhibition or displacement.

The test deals with Cell division control protein 42 homolog (Homo sapiens) (UniProt P60953). Briefly: wildtype Cdc42 GTP-binding inhibitors, SAR follow-up, biochemical, pyrazoline analogs, multiplex bead flow cytometry, Ki (AID 2019). The settings on record: bead-based flow cytometry, Bodipy-FL-GTP binding; Ki calculated from EC50.
Cell division control protein 42 homolog (Homo sapiens), sequence (P60953 whole entry, looked up): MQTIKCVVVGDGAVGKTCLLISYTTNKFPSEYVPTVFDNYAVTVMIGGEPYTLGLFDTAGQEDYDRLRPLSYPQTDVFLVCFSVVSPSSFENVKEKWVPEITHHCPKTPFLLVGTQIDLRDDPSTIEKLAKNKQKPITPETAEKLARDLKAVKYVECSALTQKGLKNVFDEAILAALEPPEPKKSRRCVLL
On to `COc1cccc(C2CC(c3ccccc3)=NN2c2ccc(S(N)(=O)=O)cc2)c1` (stereo unspecified), for which the Ki was 1010 nM.

Take `NS(=O)(=O)c1ccc(N2N=C(c3ccccc3)CC2c2ccccc2Cl)cc1` (stereo unspecified): the Ki was 1530 nM.

Consider `NS(=O)(=O)c1ccc(N2N=C(c3ccccc3)CC2c2ccc(Cl)cc2)cc1` (stereo unspecified), for which the Ki was 580 nM.

Regarding `COc1ccc(C2CC(c3cccc(F)c3)=NN2c2ccc(S(N)(=O)=O)cc2)cc1` (stereo unspecified), the Ki was 610 nM.

For the compound `COc1ccc(C2CC(c3ccccc3Cl)=NN2c2ccc(S(N)(=O)=O)cc2)cc1` (stereo unspecified), the Ki was 550 nM.

Turning to `Cc1ccc(C2CC(c3ccccc3)=NN2c2ccc(S(N)(=O)=O)cc2)cc1` (stereo unspecified), the inhibition constant Ki was 1050 nM.

Consider `COc1ccc(C2CC(c3ccsc3)=NN2c2ccc(S(N)(=O)=O)cc2)cc1` (stereo unspecified), for which the Ki was 1540 nM.

Turning to `NS(=O)(=O)c1ccc(N2N=C(c3ccccc3)CC2c2cccc(Cl)c2)cc1` (stereo unspecified), the Ki is 700 nM.

In the case of `NS(=O)(=O)c1ccc(N2N=C(c3ccc(Cl)cc3)CC2c2ccccc2)cc1` (stereo unspecified), the Ki was 700 nM.

Consider `COc1ccc(C2=NN(c3ccccc3)C(c3ccccc3C(F)(F)F)C2)cc1` (stereo unspecified), for which the Ki is 7280 nM.

As for `COc1ccc(C2CC(c3ccc(F)cc3)=NN2c2cccc(F)c2)cc1OC` (stereo unspecified), the Ki was 4450 nM.

For the compound `COc1ccc(C2CC(c3ccccc3OC)=NN2c2ccc(S(N)(=O)=O)cc2)cc1` (stereo unspecified), the Ki is 1270 nM.

With `COc1ccc(C2CC(c3cccc(Cl)c3)=NN2c2ccc(S(N)(=O)=O)cc2)cc1` (stereo unspecified), the Ki is 270 nM.

With `COc1ccccc1C1CC(c2ccccc2)=NN1c1ccc(S(N)(=O)=O)cc1` (stereo unspecified), the Ki is 4750 nM.

On to `COc1ccc(C2CC(c3ccc(Br)cc3)=NN2c2ccc(S(N)(=O)=O)cc2)cc1` (stereo unspecified), for which the Ki is 630 nM.

As for `Cc1ccccc1C1CC(c2ccccc2)=NN1c1ccc(S(N)(=O)=O)cc1` (stereo unspecified), the Ki is 3510 nM.

For the compound `COc1ccc(C2CC(c3ccc(F)cc3)=NN2c2ccc(S(N)(=O)=O)cc2)cc1` (stereo unspecified), the Ki was 900 nM.

`O=S(=O)(c1ccc(N2N=C(c3ccccc3)CC2c2ccccc2)cc1)C(F)F` (stereo unspecified): the Ki was 50 nM.

Turning to `COc1ccc(C2CC(c3cccc(C(F)(F)F)c3)=NN2c2ccc(S(N)(=O)=O)cc2)cc1` (stereo unspecified), the Ki is 660 nM.

Regarding `COc1ccc(C2CC(c3ccccc3Br)=NN2c2ccc(S(N)(=O)=O)cc2)cc1` (stereo unspecified), the Ki is 710 nM.

For `COc1ccc(C2CC(c3ccc(N(C)C)cc3)=NN2c2ccc(S(N)(=O)=O)cc2)cc1` (stereo unspecified), the Ki is 710 nM.

`COc1ccc(C2=NN(c3ccc(S(N)(=O)=O)cc3)C(c3ccc(OC)cc3)C2)cc1` (stereo unspecified): the Ki was 540 nM.

As for `COc1ccc(C2CC(c3ccccc3F)=NN2c2ccc(S(N)(=O)=O)cc2)cc1` (stereo unspecified), the Ki is 590 nM.

On to `COc1ccc(C2CC(c3ccc(Cl)cc3)=NN2c2ccc(S(N)(=O)=O)cc2)cc1` (stereo unspecified), for which the Ki is 490 nM.

On to `NS(=O)(=O)c1ccc(N2N=C(c3ccccc3)CC2c2cccc(Br)c2)cc1` (stereo unspecified), for which the Ki is 700 nM.

Turning to `COc1ccc(C2CC(c3cccc(Br)c3)=NN2c2ccc(S(N)(=O)=O)cc2)cc1` (stereo unspecified), the Ki is 440 nM.

Turning to `COc1ccc(-c2cc(-c3ccccc3)nn2-c2ccc(S(N)(=O)=O)cc2)cc1`, the Ki is 1070 nM.

As to `NS(=O)(=O)c1ccc(N2N=C(c3ccccc3)CC2c2ccc(Br)cc2)cc1` (stereo unspecified), the Ki is 230 nM.

Consider `COc1ccc(C2CC(c3ccccc3C)=NN2c2ccc(S(N)(=O)=O)cc2)cc1` (stereo unspecified), for which the Ki is 870 nM.

Consider `COc1ccc(C2CC(c3cccs3)=NN2c2ccc(S(N)(=O)=O)cc2)cc1` (stereo unspecified), for which the Ki was 620 nM.

`COc1ccc(C2CC(c3cccc(C)c3)=NN2c2ccc(S(N)(=O)=O)cc2)cc1` (stereo unspecified): the Ki was 800 nM.

In the case of `Cc1cccc(C2CC(c3ccccc3)=NN2c2ccc(S(N)(=O)=O)cc2)c1` (stereo unspecified), the Ki is 1060 nM.

As for `COc1ccc(C2CC(c3cccnc3)=NN2c2ccc(S(N)(=O)=O)cc2)cc1` (stereo unspecified), the Ki was 2010 nM.

As to `COc1ccc(C2CC(c3ccccc3)=NN2c2ccc(S(N)(=O)=O)cc2)cc1OC` (stereo unspecified), the Ki is 1210 nM.

Regarding `COc1ccc(C2CC(c3ccc(C)cc3)=NN2c2ccc(S(N)(=O)=O)cc2)cc1` (stereo unspecified), the Ki is 470 nM.

On to `COc1ccc(C2CC(c3cccc(OC)c3)=NN2c2ccc(S(N)(=O)=O)cc2)cc1` (stereo unspecified), for which the Ki is 310 nM.

Values taken from PubChem BioAssay AID2019 (NMMLSC, 2009).
